Experimental data reported in US20230339878A1, “SLC26A3 INHIBITORS AND USE THEREOF” (THE REGENTS OF THE UNIVERSITY OF CALIFORNIA, priority 2018, published 2023).
“Also recorded” adds a separate entry of the source. Read-outs that look alike come from different tables or passages of the source.

Tests used:
[1] = target: T1, murine slc26a3 (Mus musculus, UniProt Q9WVC8); test: slc26a3-mediated Cl-/I- exchange, YFP fluorescence quenching in FRT-YFP-slc26a3 cells; format: cell-based
T1 construct: host or cells: Fischer rat thyroid (FRT) cells expressing YFP, clonal line FRT-YFP-slc26a3
T1 sequence (Q9WVC8 1-757): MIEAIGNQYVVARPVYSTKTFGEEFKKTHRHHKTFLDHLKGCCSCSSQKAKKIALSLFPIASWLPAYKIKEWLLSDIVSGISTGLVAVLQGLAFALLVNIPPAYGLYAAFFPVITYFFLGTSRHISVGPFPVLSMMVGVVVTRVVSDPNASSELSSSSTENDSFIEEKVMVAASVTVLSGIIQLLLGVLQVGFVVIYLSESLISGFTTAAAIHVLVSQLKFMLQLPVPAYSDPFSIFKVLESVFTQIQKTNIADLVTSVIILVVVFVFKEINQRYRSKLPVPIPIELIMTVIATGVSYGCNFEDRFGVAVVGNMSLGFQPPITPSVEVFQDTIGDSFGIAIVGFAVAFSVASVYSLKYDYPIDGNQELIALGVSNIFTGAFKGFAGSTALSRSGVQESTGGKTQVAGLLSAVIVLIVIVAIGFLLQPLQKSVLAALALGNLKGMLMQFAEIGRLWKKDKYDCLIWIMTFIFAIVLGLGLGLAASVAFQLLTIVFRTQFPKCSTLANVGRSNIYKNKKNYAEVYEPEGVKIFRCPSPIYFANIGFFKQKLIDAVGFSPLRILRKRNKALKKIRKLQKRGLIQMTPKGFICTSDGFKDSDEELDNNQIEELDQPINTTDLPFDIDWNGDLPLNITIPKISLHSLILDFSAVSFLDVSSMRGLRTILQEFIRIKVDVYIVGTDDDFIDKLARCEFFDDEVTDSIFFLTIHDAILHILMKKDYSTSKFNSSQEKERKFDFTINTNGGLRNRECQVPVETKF
Description: High-throughput screening to identify slc26a3 inhibitors using FRT-YFP- slc26a3 cells was done with a semi-automated Beckman Coulter (Indianapolis, IN) platform with FLUOstar OMEGA plate readers (BMG Labtech, Cary, NC), essentially as described for discovery of pendrin inhibitors. Initial screening was done of ~50,000 drug-like synthetic small molecules (ChemDiv, San Diego, CA) at a concentration of 25 µM using a Cl^-/I^- exchange protocol to assay slc26a3 function. Following initial screening, compound analogs were purchased (ChemDiv, San Diego, CA) to generate structure-activity data.
For the screening, FRT-YFP-slc26a3 cells were plated in 96-well black-walled, clear-bottom tissue culture plates (Corning Life Sciences, Tewksbury, MA) at a density of 20,000 cells/well and cultured for 48 hours until confluent. For screening, cells were washed twice in PBS and incubated for 10 min in 100 µl PBS containing test compounds prior to assay of slc26a3 function. Assays were done using a FLUOstar OMEGA plate reader (BMG Labtech, Cary, NC) over 12 s with initial fluorescence recorded over 1 s prior to addition of 100 µl NaI-substituted PBS (137 mM NaCl replaced by 137 mM NaI) to drive Cl^-/I^- exchange. The initial rate of Cl^-/I^- exchange was determined from fluorescence intensity by single exponential regression. All plates contained wells with negative (1 % DMSO) and positive (350 µM niflumic acid) controls.
Screening was done using an FRT cell line stably expressing murine slc26a3 and a halide-sensitive yellow fluorescent protein (FRT-YFP- slc26a3 cells). FRT cells were used because of their low intrinsic permeability to anions that are transported by slc26a3, and because of their good adherence and rapid growth on uncoated plastic. As diagrammed in FIG. 1A, slc26a3-mediated transport was assayed from the kinetics of YFP fluorescence quenching in response to extracellular addition of I^- to drive Cl^-/I^- exchange; transport inhibition reduces the rate of fluorescence decrease.

[2] = Pharmacokinetics in mice, serum LC/MS; format: in vivo
Description: Pharmacokinetics of the Compound A1(DRAinh-A250) and analogs (DRAinh-A260 and DRAinh-A270) was determined in mice. After single dose intraperitoneal or oral administration (5 mg/kg for Compound A1 and DRAinh-A260, 10 mg/kg for DRAinh-A270), blood samples were collected via retro-orbital puncture at different time points and serum was separated by centrifugation. Compound concentrations were measured in serum using LC/MS. FIGS. 10A, 10B, 10C show the respective serum concentration of Compound A1 (FIG. 10A), DRAinh-A260 (FIG. 10B) and DRAinh-A270 (FIG. 10C) after single oral or intraperitoneal administration at zero time (n=3 mice per compound per administration route). Compound A1 had predicted therapeutic levels for at least 24 hours after single dose oral or intraperitoneal administration. […] (mean±SEM): 53.9±6.5% for Compound A1, 16.4±6.6% for DRAinh-A260, and 39.3±3.5% for DRAinh-A270.

[3] = system: loperamide-treated wild-type mice; test: Loperamide-induced constipation model in wild-type mice; format: in vivo; conditions: 5 mg/kg oral gavage 1 hour before loperamide, wild-type mice
Description: Female CD1 mice (age 8-10 weeks) were administered loperamide (0.3 mg/kg, intraperitoneally, Sigma-Aldrich) to produce constipation. Compound A1 (DRAinh-A250) (5 mg/kg, in saline containing vehicle (5% DMSO and 10% Kolliphor HS 15; Sigma-Aldrich)), tenapanor (5 mg/kg, in vehicle), both compounds (5 mg/kg each, in vehicle), or vehicle alone were administered by oral gavage 1 hour before loperamide. After loperamide injection, mice were placed individually in metabolic cages with ad libitum access to food and water. Stool samples were collected for 3 h, and total stool weight and number of fecal pellets were quantified. To measure stool water content, stool samples were dried at 80° C. for 24 h and water content was calculated as [wet weight-dry weight]/wet weight. Similar studies were done in cystic fibrosis (CF) mice (ΔF508 homozygous) lacking functional CFTR.
Constipation Model in MiceDRAinh-A260 and DRAinh-A270 were tested in a loperamide-induced constipation model in mice. Female CD1 mice (age 8-10 weeks) were administered loperamide (0.3 mg/kg, intraperitoneally, in 5% ethanol in PBS, 0.1 mg/mL final concentration) to produce constipation and vehicle in control mice. DRAinh-A260 (5 mg/kg, in saline with 5% DMSO and 10% Kolliphor HS 15) or DRAinh-A270 (1, 3 or 10 mg/kg, in PBS with 5% DMSO and 20% (2- hydroxypropyl)-β-cyclodextrin) or vehicle alone were administered by oral gavage 1 hour before loperamide (FIG. 11A). After loperamide injection, mice were placed individually in metabolic cages with free access to food and water. Stool samples were collected for 3 hours, and total stool weight and number of fecal pellets were quantified. To measure stool water content, stool samples were dried at 80° C. for 24 hours and water content was calculated as [wet weight-dry weight]/wet weight.

[4] = representative Class A compounds, Table 3, read-out: IC50

## O=C(O)c1cccnc1Nc1cccc(C(F)(F)F)c1 [niflumic acid, reference compound]
[1]; 350 µM
  inhibition of slc26a3, positive control: strongly inhibited
[1]; read-out: IC50 for inhibition of slc26a3-mediated Cl-/I- exchange
  IC50: ~60 µM

## Cc1c(CC(=O)O)c(=O)oc2c(C)c(OCc3cc(C(F)(F)F)cc(C(F)(F)F)c3)ccc12 [Compound A263]
[1]; [4]
  IC50: 15 µM

## Cc1c(CC(=O)O)c(=O)oc2c(C)c(OCc3ccc(Cl)c(Cl)c3)ccc12 [Compound A7]
[1]; selected class A analogs, Table 1, Cl-/I- exchange, read-out: IC50
  IC50: 1.8 µM

## Cc1c(CC(=O)O)c(=O)oc2c(C)c(OCc3cc(C(F)(F)F)ccc3F)ccc12 [Compound A266]
[1]; [4]
  IC50: 0.1 µM

## CCCCCCOc1ccc2c(C)c(CC(=O)O)c(=O)oc2c1C [Compound A278]
[1]; [4]
  IC50: 1.5 µM

## Cc1c(CC(=O)O)c(=O)oc2c(C)c(OCC3CCCC3)ccc12 [Compound A281]
[1]; [4]
  IC50: 1.8 µM

## Cc1c(CC(=O)O)c(=O)oc2c(C)c(OC3CCCC3)ccc12 [Compound A279]
[1]; [4]
  IC50: 4.5 µM

## Cc1c(CC(=O)O)c(=O)oc2c(C)c(OCc3ccccc3I)ccc12 [Compound A269]
[1]; [4]
  IC50: 4.5 µM

## Cc1c(CC(=O)O)c(=O)oc2c(C)c(OCc3cccc(C(F)(F)F)c3)ccc12 [DRAinh-A260]
[2]; 5 mg/kg (A1, A260) or 10 mg/kg (A270), mice
  oral bioavailability: 16%
[2]; 5 mg/kg single dose oral or intraperitoneal
  serum level time course: high serum levels initially; also recorded: almost complete disappearance of compound from serum at 16 hours
[2]; mouse, serum, po, 5 mg/kg (A1, A260) or 10 mg/kg (A270), mice, n=3, read-out: oral bioavailability (mean±SEM)
  bioavailability: 16.4 ± 6.6%
[1]; [4]
  IC50: 0.025 µM
[3]
  three-hour stool weight, number of pellets and stool water content: improving stool weight, pellet number and water content; also recorded: improves 3-hour stool weight, pellet number and water content

## Cc1c(CC(=O)O)c(=O)oc2c(C)c(OCC3CCC3)ccc12 [Compound A280]
[1]; [4]
  IC50: 3.4 µM

## Cc1c(CC(=O)O)c(=O)oc2c(C)c(OCc3cccc([N+](=O)[O-])c3)ccc12 [Compound A253]
[1]; [4]
  IC50: 0.5 µM

## Cc1c(CC(=O)O)c(=O)oc2c(C)c(OCc3cccc(C4CC4)c3)ccc12 [Compound A261]
[1]; [4]
  IC50: 0.07 µM

## Cc1c(CC(=O)O)c(=O)oc2c(C)c(OCc3ccc(C(F)(F)F)o3)ccc12 [Compound A286]
[1]; [4]
  IC50: 0.3 µM
